Legend:
K562 cells [1] = assay: Western blotting of histone methylation, K562; assay type: cell-based, human; conditions: K562, 100 μM, 24 hours
K562 cells [2] = assay: γH2AX immunofluorescence, K562; assay type: cell-based, human
Method: Cells were seeded at densities of 1×10^6/mL in 24 well culture (Nalge Nunc, New York, USA) and treated with hydroxytyrosol (0, 20, 100 μM), for 24 hours at 37° C., 5% (v/v) CO2. Cells were then stained and quantified for the number of γH2AX foci per cell nuclei. Briefly, using cytofunnels and filter cards, aliquots of […] were cytospun (Shandon, Inc.) for 5 minutes at 500 rpm onto Poly-o-lysine slides (Menzel-Glaser, Germany). All cells were then fixed for 10 minutes with 4% paraformaldehyde (Sigma-Aldrich, USA), washed once for five minutes with PBS without calcium and magnesium and permeabilized using 0.1% Triton X-100(Sigma-Aldrich, USA) for 10 minutes at room temperature. […]
Images were acquired using a Zeiss LSM 510 Meta laser confocal microscope fitted with a Z-stage motor and 63× oil plan apochromat objective with a refractive index of 1.40. […] Images required for γH2AX quantification were acquired in 512×512 pixel format and loaded into Image J (Fiji version 1.44a). […]
Image J software was used for the quantification of foci in all experiments. […] Now clearly defined nuclear regions were selected, numbers of foci were quantified by using the find maxima tool. […] Foci were now quantified as a total number for all cells selected. The average number of foci per nucleus was calculated and recorded into Excel spread sheets (Microsoft, Redmond, Wash., USA). […]

PBMC = assay: Total Antioxidant Capacity Assay, PBMC; assay type: cell-based, human; conditions: 50 μM hydroxytyrosol, 200 μM Oleuropein or Formulation 2 (dilution factor=4), 24 hours
Method: Human peripheral blood mononuclear cells were seeded at 1×10^6 cells per well in 12 well culture plates (Nalge Nunc) with Formulation 2 (dilution factor=4) (Table 9), 50 μM hydroxytyrosol or 200 μM Oleuropein for 24 hours; 37° C., 5% (v/v) CO2. In separate experiments, cells were treated with 30 mM glucose for 72 hours prior to 24 hours incubation in fresh media and then a 24 hour incubation with the hydroxytyrosol-containing formulation 2 (dilution factor=4); 37° C., 5% (v/v) CO2. Experiments to determine the protection of cells following doxorubicin treatment involved pre-treatment with Formulation 2 (dilution factor=4) for 24 hours prior to 1 hour incubation with 1 μM doxorubicin. Cells were washed and incubated for a further 24 hours in fresh media; 37° C., 5% (v/v) CO2. Cells were harvested for their total protein by centrifugation at 1000×g for 10 minutes at 4° C. to pellet cell suspensions. […] Cell lysates were analyzed for their total antioxidant capacity. […] The sum of endogenous and food-derived antioxidants in the sample represented the total antioxidant activity of the cells and was measured by their ability to inhibit the oxidation of ABTS (2,2′-Azino-di-[3-ethylbenzthiazoline sulphonate]) in the presence of metmyoglobin using the Perkin Elmer Multi-plate reader (λem=750 nm). […]

human keratinocytes = assay: γH2AX immunofluorescence, keratinocytes after γ-radiation; assay type: cell-based; conditions: pre-treatment 24 hours
Method: Keratinocytes pre-treated with Formulations 1, 2 and 3 (Table 9) for 24 hours prior to exposure to 0, 2 and 12 Gy (137Cs) and incubated for a further hour; 37° C., 5% (v/v) CO2, before staining for γH2AX as previously described.

OCCc1ccc(O)c(O)c1 [HT, 4-(2-hydroxyethyl)-1,2-benzenediol] was tested, and the “histone H3 lysine 9 (H3K9) di-methylation” value (K562 cells [1]) was “increased”, the “DNA double-strand breaks (γH2AX accumulation)” value (K562 cells [2]; K562, 0, 20, 100 μM, 24 hours) was “induces significant DNA-double strand breaks” and the “effect on DNA damage by anti-cancer modalities (doxorubicin, vinblastine, mitomycin C, UVA, γ-radiation)” value (K562 cells [2]; K562, 100 μM hydroxytyrosol pre-treatment 24 hours) was “enhances the DNA damaging effects”. The total antioxidant capacity (PBMC; listed as Hydroxytyrosol) was “significantly increased the total antioxidant”, the total antioxidant capacity (PBMC; listed as hydroxytyrosol) was “enhance the antioxidant capacity” and the “radiation-induced DNA damage” value (human keratinocytes) was “protects”.

Source: patent US10231939B2, “Hydroxytyrosol and oleuropein compositions for induction of DNA damage, cell death and LSD1 inhibition” (priority 2012, dated 2019)
